The results in this text go back to ChEMBL document CHEMBL3525949, “Role of organic anion-transporting polypeptides for cellular mesalazine (5-aminosalicylic acid) uptake” (Drug Metab Dispos, 2011).

Structures are written as SMILES.

Format in all cases: ADME, cell-based
The subject of data set [1] is SCLO1B1*15 mutant. As to the kind of experiment: Drug uptake in human SCLO1B1*15 mutant expressed HEK293 cells assessed as net uptake. The following applies: HEK293 cells expressing human SCLO1B1*15 mutant.
The target of data set [2] is T1, Solute carrier organic anion transporter family member 1B3 (Homo sapiens, UniProt Q9NPD5).
T1 sequence (Q9NPD5 whole entry): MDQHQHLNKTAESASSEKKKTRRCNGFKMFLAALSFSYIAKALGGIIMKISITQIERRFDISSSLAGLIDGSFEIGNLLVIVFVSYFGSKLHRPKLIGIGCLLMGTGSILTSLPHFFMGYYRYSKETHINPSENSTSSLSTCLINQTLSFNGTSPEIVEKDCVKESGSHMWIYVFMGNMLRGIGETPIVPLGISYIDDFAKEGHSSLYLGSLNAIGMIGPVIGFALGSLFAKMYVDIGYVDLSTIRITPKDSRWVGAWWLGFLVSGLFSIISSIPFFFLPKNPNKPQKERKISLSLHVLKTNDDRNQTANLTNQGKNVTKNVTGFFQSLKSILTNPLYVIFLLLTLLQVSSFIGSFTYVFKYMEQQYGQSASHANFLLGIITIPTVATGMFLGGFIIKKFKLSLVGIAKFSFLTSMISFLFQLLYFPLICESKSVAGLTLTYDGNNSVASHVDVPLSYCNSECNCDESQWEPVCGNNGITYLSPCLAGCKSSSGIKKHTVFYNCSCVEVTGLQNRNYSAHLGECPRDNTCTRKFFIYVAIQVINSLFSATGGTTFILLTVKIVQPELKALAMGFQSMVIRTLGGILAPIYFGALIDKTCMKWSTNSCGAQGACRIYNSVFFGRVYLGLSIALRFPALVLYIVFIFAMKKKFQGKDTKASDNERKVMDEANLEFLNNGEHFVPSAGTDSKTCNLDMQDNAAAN
The experiment in a line: Inhibition of human OATP1B3 expressed HEK293 cells assessed as inhibition of [3H]sulfobromophthalein uptake by liquid scintillation counting.

The nature of data set [3]: Drug uptake in human SCLO1B1*5 mutant expressed HEK293 cells assessed as net uptake measured per mg of protein.
For data set [4], the target named is T2, OATP1B1 (Homo sapiens, UniProt Q9Y6L6).
T2 sequence (Q9Y6L6 whole entry): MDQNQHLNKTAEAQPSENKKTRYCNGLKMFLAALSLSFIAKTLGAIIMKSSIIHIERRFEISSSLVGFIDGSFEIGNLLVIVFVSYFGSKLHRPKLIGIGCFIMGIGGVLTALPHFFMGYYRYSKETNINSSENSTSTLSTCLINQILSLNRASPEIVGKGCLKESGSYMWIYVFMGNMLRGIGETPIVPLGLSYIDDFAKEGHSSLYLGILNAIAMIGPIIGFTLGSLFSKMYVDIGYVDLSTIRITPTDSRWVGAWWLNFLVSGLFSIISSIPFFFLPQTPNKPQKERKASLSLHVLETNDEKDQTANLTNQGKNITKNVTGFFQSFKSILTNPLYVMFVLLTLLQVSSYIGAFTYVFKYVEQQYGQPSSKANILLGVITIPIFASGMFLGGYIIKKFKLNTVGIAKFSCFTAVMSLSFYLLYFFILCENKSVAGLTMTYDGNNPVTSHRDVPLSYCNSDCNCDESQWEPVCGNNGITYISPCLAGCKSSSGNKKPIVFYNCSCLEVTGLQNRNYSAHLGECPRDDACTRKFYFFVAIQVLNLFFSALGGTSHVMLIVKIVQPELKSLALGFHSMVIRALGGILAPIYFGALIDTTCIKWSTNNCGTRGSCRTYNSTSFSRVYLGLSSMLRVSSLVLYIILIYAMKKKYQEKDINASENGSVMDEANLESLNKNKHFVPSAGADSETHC
The experiment in a line: Drug uptake in human OATP1B1 expressed HEK293 cells at 20 uM relative to control cells. The note with it: HEK293 cells expressing human OATP1B1, read-out: FC.

Data set [5] addresses T3, Solute carrier organic anion transporter family member 1B1 (Homo sapiens, UniProt Q9Y6L6).
T3 sequence (Q9Y6L6 whole entry): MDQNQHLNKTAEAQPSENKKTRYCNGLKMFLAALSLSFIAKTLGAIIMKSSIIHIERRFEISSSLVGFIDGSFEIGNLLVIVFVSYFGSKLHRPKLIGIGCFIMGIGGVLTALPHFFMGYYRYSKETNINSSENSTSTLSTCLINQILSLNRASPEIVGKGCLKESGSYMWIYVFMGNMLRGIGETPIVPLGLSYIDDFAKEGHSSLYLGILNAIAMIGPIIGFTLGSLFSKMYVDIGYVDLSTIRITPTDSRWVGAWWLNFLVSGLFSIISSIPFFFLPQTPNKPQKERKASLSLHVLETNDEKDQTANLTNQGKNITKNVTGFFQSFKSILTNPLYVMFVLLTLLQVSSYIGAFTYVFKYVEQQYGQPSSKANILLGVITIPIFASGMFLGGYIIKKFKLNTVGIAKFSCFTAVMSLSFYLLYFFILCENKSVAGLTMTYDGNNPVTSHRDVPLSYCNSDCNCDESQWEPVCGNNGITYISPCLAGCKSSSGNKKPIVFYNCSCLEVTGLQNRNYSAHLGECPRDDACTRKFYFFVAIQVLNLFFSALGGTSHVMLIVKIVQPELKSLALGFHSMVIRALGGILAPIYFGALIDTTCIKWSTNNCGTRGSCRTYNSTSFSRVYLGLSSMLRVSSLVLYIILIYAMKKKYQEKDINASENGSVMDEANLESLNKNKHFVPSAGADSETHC
The experiment in a line: Inhibition of human OATP1B1 expressed HEK293 cells assessed as inhibition of [3H]sulfobromophthalein uptake by liquid scintillation counting.

The target of data set [6] is T4, OATP1B3 (Homo sapiens, UniProt Q9NPD5).
T4 sequence (Q9NPD5 whole entry): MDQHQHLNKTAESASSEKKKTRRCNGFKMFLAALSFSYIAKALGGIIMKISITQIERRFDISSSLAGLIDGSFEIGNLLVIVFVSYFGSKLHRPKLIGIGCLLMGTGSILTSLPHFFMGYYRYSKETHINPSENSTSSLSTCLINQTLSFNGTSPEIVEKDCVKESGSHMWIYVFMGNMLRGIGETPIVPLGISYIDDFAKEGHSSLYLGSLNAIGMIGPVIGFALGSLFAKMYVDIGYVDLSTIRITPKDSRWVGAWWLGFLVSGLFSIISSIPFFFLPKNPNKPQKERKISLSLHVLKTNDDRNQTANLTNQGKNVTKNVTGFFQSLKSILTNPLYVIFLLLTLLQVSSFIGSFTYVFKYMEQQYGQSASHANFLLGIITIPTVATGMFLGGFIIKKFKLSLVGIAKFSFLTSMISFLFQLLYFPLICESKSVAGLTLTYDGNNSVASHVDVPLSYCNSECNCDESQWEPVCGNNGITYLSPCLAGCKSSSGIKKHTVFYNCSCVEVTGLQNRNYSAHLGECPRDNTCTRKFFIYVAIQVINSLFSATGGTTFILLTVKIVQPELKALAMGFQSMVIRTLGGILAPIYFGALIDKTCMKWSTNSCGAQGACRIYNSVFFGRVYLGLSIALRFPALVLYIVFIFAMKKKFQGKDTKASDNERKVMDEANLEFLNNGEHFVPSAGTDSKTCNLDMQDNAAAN
The experiment in a line: Drug uptake in human OATP1B3 expressed HEK293 cells assessed as net uptake. The note with it: HEK293 cells expressing human OATP1B3.

In data set [7] the target is T1, Solute carrier organic anion transporter family member 1B3. The experiment in a line: Drug uptake in human OATP1B3 expressed HEK293 cells assessed as net uptake measured per mg of protein.
For data set [8], the target named is T5, Solute carrier organic anion transporter family member 2B1 (Homo sapiens, UniProt O94956).
T5 sequence (O94956 whole entry): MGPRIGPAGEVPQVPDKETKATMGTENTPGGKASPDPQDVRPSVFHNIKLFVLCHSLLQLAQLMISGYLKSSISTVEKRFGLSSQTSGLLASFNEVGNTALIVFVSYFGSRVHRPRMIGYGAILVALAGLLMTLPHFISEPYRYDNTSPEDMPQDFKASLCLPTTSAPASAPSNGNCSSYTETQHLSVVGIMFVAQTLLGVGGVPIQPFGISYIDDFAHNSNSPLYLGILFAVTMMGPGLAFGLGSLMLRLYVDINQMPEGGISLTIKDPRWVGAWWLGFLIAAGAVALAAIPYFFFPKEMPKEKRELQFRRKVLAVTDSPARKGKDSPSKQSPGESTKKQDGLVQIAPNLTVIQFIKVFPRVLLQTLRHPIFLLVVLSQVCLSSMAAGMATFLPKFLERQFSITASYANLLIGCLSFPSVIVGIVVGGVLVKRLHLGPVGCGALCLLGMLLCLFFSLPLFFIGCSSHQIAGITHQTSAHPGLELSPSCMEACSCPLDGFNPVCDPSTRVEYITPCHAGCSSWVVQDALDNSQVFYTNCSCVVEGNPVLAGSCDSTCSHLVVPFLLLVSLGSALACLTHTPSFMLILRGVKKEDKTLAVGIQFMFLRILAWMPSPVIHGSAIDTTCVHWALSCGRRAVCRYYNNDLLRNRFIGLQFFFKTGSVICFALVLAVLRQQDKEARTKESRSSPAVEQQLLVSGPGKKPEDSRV
As to the kind of experiment: Inhibition of human OATP2B1 expressed HEK293 cells assessed as inhibition of [3H]sulfobromophthalein uptake by liquid scintillation counting.

Data set [9] deals with SCLO1B1*1a mutant. As to the kind of experiment: Drug uptake in human SCLO1B1*1a mutant expressed HEK293 cells assessed as net uptake. The following applies: HEK293 cells expressing human SCLO1B1*1a mutant.
Data set [10] has as its system SCLO1B1*1b mutant. The experiment in a line: Drug uptake in human SCLO1B1*1b mutant expressed HEK293 cells assessed as net uptake. The following applies: HEK293 cells expressing human SCLO1B1*1b mutant.
Data set [11] addresses T4, OATP1B3. As to the kind of experiment: Drug uptake in human OATP1B3 expressed HEK293 cells at 20 uM relative to control cells. The following applies: HEK293 cells expressing human OATP1B3, read-out: FC.
The subject of data set [12] is SCLO1B1*5 mutant. The experiment in a line: Drug uptake in human SCLO1B1*5 mutant expressed HEK293 cells assessed as net uptake. The note with it: HEK293 cells expressing human SCLO1B1*5 mutant.
The nature of data set [13]: Drug uptake in human SCLO1B1*15 mutant expressed HEK293 cells assessed as net uptake measured per mg of protein.
A short description of data set [14]: Drug uptake in human SCLO1B1*1b mutant expressed HEK293 cells assessed as net uptake measured per mg of protein.
Data set [15] has as its target T6, Solute carrier organic anion transporter family member 1A2 (Homo sapiens, UniProt P46721).
T6 sequence (P46721 whole entry): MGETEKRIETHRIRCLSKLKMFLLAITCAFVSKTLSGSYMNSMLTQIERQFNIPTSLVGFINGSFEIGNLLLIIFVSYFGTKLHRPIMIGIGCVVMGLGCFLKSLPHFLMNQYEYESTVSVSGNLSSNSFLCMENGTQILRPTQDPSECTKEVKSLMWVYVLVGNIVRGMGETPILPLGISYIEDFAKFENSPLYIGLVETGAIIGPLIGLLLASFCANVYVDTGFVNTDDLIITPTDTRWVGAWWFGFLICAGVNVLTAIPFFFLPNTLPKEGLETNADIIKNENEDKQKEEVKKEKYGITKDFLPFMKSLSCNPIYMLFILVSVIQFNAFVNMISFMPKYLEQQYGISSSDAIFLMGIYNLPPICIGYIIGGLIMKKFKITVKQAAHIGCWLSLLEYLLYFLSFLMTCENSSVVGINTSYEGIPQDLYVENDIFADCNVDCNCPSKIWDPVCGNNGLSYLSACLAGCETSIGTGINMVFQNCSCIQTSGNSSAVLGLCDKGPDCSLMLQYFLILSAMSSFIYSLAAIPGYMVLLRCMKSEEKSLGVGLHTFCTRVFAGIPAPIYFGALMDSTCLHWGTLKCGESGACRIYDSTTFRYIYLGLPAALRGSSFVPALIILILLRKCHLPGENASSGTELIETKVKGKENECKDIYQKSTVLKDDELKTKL
The experiment in a line: Inhibition of human OATP1A2 expressed HEK293 cells assessed as inhibition of [3H]sulfobromophthalein uptake by liquid scintillation counting.

A short description of data set [16]: Drug uptake in human SCLO1B1*1a mutant expressed HEK293 cells assessed as net uptake measured per mg of protein.
The target of data set [17] is T7, OATP2B1 (Homo sapiens, UniProt O94956).
T7 sequence (O94956 whole entry): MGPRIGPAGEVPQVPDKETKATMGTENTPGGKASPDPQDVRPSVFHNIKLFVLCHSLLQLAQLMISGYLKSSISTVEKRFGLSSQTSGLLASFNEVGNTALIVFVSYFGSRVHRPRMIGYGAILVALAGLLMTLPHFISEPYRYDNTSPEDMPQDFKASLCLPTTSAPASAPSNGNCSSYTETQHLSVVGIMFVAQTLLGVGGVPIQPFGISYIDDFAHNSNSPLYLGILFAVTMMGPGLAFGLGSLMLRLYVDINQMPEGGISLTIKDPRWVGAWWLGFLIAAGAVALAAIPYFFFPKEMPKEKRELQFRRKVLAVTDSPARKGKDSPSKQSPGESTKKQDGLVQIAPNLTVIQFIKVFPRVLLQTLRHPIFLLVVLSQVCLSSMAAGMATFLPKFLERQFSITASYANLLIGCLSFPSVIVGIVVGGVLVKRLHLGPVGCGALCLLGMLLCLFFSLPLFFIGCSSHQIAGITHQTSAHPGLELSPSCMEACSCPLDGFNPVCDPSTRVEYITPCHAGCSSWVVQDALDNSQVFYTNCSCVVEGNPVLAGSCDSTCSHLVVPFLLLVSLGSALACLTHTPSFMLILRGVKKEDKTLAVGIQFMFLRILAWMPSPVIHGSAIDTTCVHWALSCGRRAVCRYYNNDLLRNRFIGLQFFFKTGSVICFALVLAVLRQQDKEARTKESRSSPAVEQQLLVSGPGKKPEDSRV
As to the kind of experiment: Drug uptake in human OATP2B1 expressed HEK293 cells at 20 uM relative to control cells. The note with it: HEK293 cells expressing human OATP2B1, read-out: FC.

In the case of `Nc1ccc(O)c(C(=O)O)c1` [MESALAMINE], the Km in data set [1] was 32.4 µM; in data set [6], 77.4 µM; in data set [9] it was 55.1 µM; in [10], 16.3 µM; in data set [12], 24.3 µM. In addition, the “inhibition (INH)” value in data set [2], in data set [5], in [8] and in [15] was “Dose-dependent effect” each time. The Vmax in [3] is 6.1 pmol/min; in data set [7] it was 85.1 pmol/min; in data set [13], 9.3 pmol/min; in data set [14], 3.8 pmol/min; in data set [16] it was 28.3 pmol/min. Besides, the figures for the uptake ratio at 20 µM in data set [4], in data set [11] and in data set [17] were 2.7, 2.9 and 2, respectively.

Broadly, the Km is the substrate concentration at which the rate is half of its maximum. As a reminder, the Vmax is the rate approached at saturating substrate.
